According to patent publication US10624948B2, “Use of cell-permeable peptide inhibitors of the JNK signal transduction pathway for the treatment of various diseases” (Xigen Inflammation Ltd., priority 2013, dated 2020):

Assays:
[1] = Phase I pharmacokinetics, single intravenous infusion; conditions: human, in vivo
Method: The primary objective of the study was to assess the safety and tolerability of XG-102 following intravenous (iv) infusion of single escalating doses of XG-102 to healthy male volunteers. The secondary objective of the study was to assess the pharmacokinetics of XG-102 following iv infusion of single escalating doses of XG-102 to healthy male volunteers. Doses were administered as a 60 minute iv infusion. For control purposes, placebo iv infusion was administered to control subjects. This was a single-centre, randomized, double blind, placebo controlled, ascending single dose, sequential group study. […] Screening was performed in the 3-week period prior to dosing. Dosing occurred on Day 0 for each subject. […] Data for all subjects were included in the safety analyses; data for all subjects who received XG-102 were included in the pharmacokinetic analyses.

[2] = test system: Brown Norway rats, STZ-induced diabetic retinopathy; test: Diabetic retinopathy prevention study in STZ treated rat (IVT); assay type: in vivo
Method: The objective of this study was to determine the ability of XG-102 to prevent diabetic retinopathy when administered by intravitreal injections to streptozotocin (STZ)-treated (hyperglycemic) rats.
All animals from Groups 2, 3, 4 received a 55 mg/kg intravenous (IV) dose of STZ on Day −7.
Test items or reference item were administered by intravitreal injection to the left and right eyes of each animal on Days 1, 8 and 15 as indicated in the Experimental Design table. The animals were anesthetized (isoflurane) for the dose administration, which was performed by a board-certified veterinary ophthalmologist. Topical antibiotics (gentamicin ophthalmic solution) were applied to both eyes twice on the day before treatment, following the injection and at least once on the day following the injection. Prior to dosing, mydriatic drops (1% tropicamide and/or 2.5% phenylephrine) were applied to each eye (further applications were performed when considered appropriate by the veterinary ophthalmologist). During dosing, animals were maintained under anesthesia with isoflurane/oxygen gas. The conjunctivae were flushed with 0.9% Sodium Chloride for Injection USP. A 10 μl Hamilton syringe with 32-gauge, ½-inch needle was used for each intravitreal injection (one syringe/group/treatment). The dose volume was 5 μL/eye. Both eyes were examined by slit-lamp biomicroscopy and/or indirect ophthalmoscopy immediately following each treatment to document any abnormalities (especially to the lens, vitreous and retina) caused by the administration procedure. […]
The in-life procedures, observations, and measurements listed below were performed for study animals. […] Food consumption was quantitatively measured weekly starting during the last week of the pretreatment period. […] Intraocular pressure was measured following each ophthalmology examination, once prestudy and on Day 22, using a TonoVet™ rebound tonometer. The pre-treatment tonometry readings were performed at the same times as anticipated for the final measurements to reduce diurnal variability. […]

[3] = Phase II trial, safety and tolerability (adverse events)
Method: The criteria for evaluation of safety were:
An AE is therefore any unfavorable and unintended sign, symptom or disease temporally associated with the use of a medicinal product, whether or not considered related to the medicinal product.
Patients were analyzed as treated, i.e. according to the treatment which they received. The safety set was the primary analysis set for the safety analysis.
The present study was a double-blind study. All patients who were randomized and for whom the sub-conjunctival injection was started are included in the safety analysis by dose group. […] If the study treatment eye drops were stopped prematurely (i.e. before day 21), the patients concerned continued follow-up until day 28, in accordance with the study protocol.
Investigators assessed (in a blinded manner) the relationship of each reported AE to any of the study treatments. An event was considered to be related to study treatment if the Investigator ticked either ‘possible’ or ‘probable’ as the reply to this question.

[4] = test system: Primary cultured macrophages; assay type: cell-based
Method: FIG. 24 Primary cultured macrophages were incubated with XG-102 (SEQ ID NO: 11) and extensively washed.

db/db mice = conditions: mouse, in vivo, sc, 10 mg/kg
Description: i) Animals • A total of twenty (20) male db/db mice (8 weeks old) were obtained from Charles River (Germany). Upon arrival, animals were group housed (n=6-7/group) and offered regular rodent chow (Altromin standard #1324 chow; C. Petersen, Ringsted, Denmark) and water ad libitum unless otherwise stated. The mice were housed under a 12:12 L/D cycle (lights on at 4:00 and lights off at 16:00) and in temperature and humidity controlled rooms.
ii) Groups and Randomization • On day −4, mice were randomized according to blood glucose level (fasted; blood glucose measured on Biosen S line analyzer (EKF diagnostic, Germany) to participate in one of the following drug treatment groups (n=6): • 1) Vehicle control, S.C. (physiological saline) • 2) XG-102 (SEQ ID NO: 11); 1 mg/kg; s.c. • 3) XG-102 (SEQ ID NO: 11); 10 mg/kg; s.c • All doses listed were calculated for the free-base. […] All compounds were administered sub-cutaneously (s.c.) in a volume of 3 ml/kg. The formulation instructions for vehicle control and XG-102 (SEQ ID NO: 11) were as follows: • First, XG-102 (SEQ ID NO: 11) was dissolved in the vehicle. […]
i) Blood Glucose • Blood glucose was measured from 7 hour fasted animals 6 hours post dosing by collection of 10 μl blood samples from the tail-vein in hematocrite tubes and subsequent analysis on a Biosen s-line analyzer (EKE-diagnostic; Germany).

`CC(C)C[C@@H](NC(=O)[C@@H](Cc1ccccc1)NC(=O)[C@H]1CCCN1C(=O)[C@@H](CCC(N)=O)NC(=O)[C@H](NC(=O)[C@H]1CCCN1C(=O)[C@@H](CCCNC(=N)N)NC(=O)[C@@H](CO)NC(=O)[C@@H](CCC(N)=O)NC(=O)[C@H](N)CC(=O)O)C(C)C)C(=O)N[C@H](CC(N)=O)C(=O)N[C@H](CC(C)C)C(=O)N[C@@H](C(=O)N[C@@H](C(=O)N1CCC[C@@H]1C(=O)N[C@H](CCCNC(=N)N)C(=O)N[C@H](CCCCN)C(=O)N1CCC[C@@H]1C(=O)N[C@H](CCCNC(=N)N)C(=O)N1CCC[C@@H]1C(=O)N1CCC[C@@H]1C(=O)N[C@H](CCCNC(=N)N)C(=O)N[C@H](CCCNC(=N)N)C(=O)N[C@H](CCCNC(=N)N)C(=O)N[C@H](CCC(N)=O)C(=O)N[C@H](CCCNC(=N)N)C(=O)N[C@H](CCCNC(=N)N)C(=O)N[C@H](CCCCN)C(=O)N[C@H](CCCCN)C(=O)N[C@H](CCCNC(=N)N)C(=O)NCC(=O)O)[C@H](C)O)[C@H](C)O` [XG-102] gave an AUCextrap ([1]; 10 ug/kg) of 34.1%, an AUCextrap ([1]; 40 ug/kg) of 6.7% and an AUCextrap ([1]; 80 ug/kg) of 2.9%. For the same compound, the mortality ([2]; IVT Days 1, 8, 15) was “no XG-102-related deaths”, the “ERG wave amplitude, overall” value ([2]; rat, in vivo) was “tendency for XG-102 to reverse the decrease of the wave amplitude” and the ERG latencies ([2]; ≤2 μg/eye) was “comparable and remained within the control and/or pretreatment variation”. For the same compound, the “patients with Intraocular pressure increased” value ([3]; XG-102 90 μg) was 23%, the “percentage of patients who experienced an AE within 24 hours” value ([3]; XG-102 90 μg) was 34% and the overall tolerability ([3]; XG-102 90 μg and 900 μg) was “well tolerated in patients who underwent complex ocular surgery”. The “Adverse events which led to an interruption of study treatment” value ([3]; XG-102 90 μg dose group) was 11 (14.1%) number of events (%), the “patients with Intraocular pressure increased” value ([3]; XG-102 900 μg) was 10% and the “percentage of patients who experienced an AE within 24 hours” value ([3]; XG-102 900 μg) was 27%. For the same compound, the “Adverse events which led to an interruption of study treatment” value ([3]; XG-102 900 μg dose group) was 8 (11.6%) number of events (%), the “incorporation into primary macrophages” value [4] was “strongly incorporated into primary macrophages” and the “reaction at s.c. injection site” value (db/db mice) was “nodular fibrosis was observed in the subcutaneous tissue”.
